Reference: US9532520B2, “Drought tolerant plants” (NUNHEMS B.V., priority 2009, dated 2017)

System: tomato seedlings (Solanum lycopersicum cv. Moneymaker)
Experiment: Root growth assay on ½MS media containing ABA
Type: in vivo
Details: wild type tomato; 0, 5, 10 or 40 μM ABA; root length seven days after transfer, relative to medium without ABA
Procedure: Seeds were sterilized as described above and sown in water containing […]. After radicle protrusion ten seeds of each line were placed on ½MS media containing either 0, 5, 10, or 40 μM ABA. The roots were measured and the plates were placed in vertical position and grown under conditions described above. Seven days after transfer the length of the root was measured again and root growth was calculated as a percentage of root growth compared to ½MS media without ABA (100%). Experiments were carried out three times and mean values plus SD are shown. Student's t-tests were performed to test for significance (p<0.05).

Structure (SMILES): CC1=CC(=O)CC(C)(C)[C@@]1(O)/C=C/C(C)=C\C(=O)O [ABA, abscisic acid]
- root growth after germination: reduced
